Data: patent US20230192705A1, “SHP2 INHIBITORS, COMPOSITIONS AND USES THEREOF” (Betta Pharmaceuticals Co., Ltd, priority 2020, published 2023)

Assays:
[1] = In vitro metabolic stability in rat liver microsome; type: in vitro ADME; details: rat liver microsomes
Description: (§1) 1900 mg MgCl2 was dissolved into a final volume of 400 mL ultra-pure water.
(§2) 17.42 g K2HPO4 and 13.65 g KH2PO4 were dissolved into a final volume of 1000 mL ultra-pure water, respectively. K2HPO4 and KH2PO4 were mixed to prepare 100 mM potassium phosphate (PBS) buffer. The pH value of the final solution was adjusted to pH 7.30±0.10.
(§3) Cold ACN (including 10 ng/mL Labetalol and 10 ng/mL Glibenclamid) was stored at 4° C.
(§4) Working Solution Preparation:
(§5) Verapamil (positive control) and test compound stock solution were diluted into a concentration of 50 μM and 200 μM respectively, using MeOH/ACN/H2O solution (1:1:2, v/v/v).
(§6) 1) 40 μL MgCl2 and 306 μL PBS were added to 96 plate wells (blank, compound wells, compounds without NADPH wells)
(§7) 2) 4 μL compound working solution was added to above wells (blank: 4 μL PBS buffer) (Note: the volume of DMSO in final incubation system ≤0.5%)
(§8) 3) 10 μL microsomes (20 mg/mL) was added in each well. The mixture was warmed up for 10 minutes at 37.0° C.
(§9) 4) 40 μL 10 mM NADPH working solution was added to start reaction. The total volume was 400 μL.
(§10) 5) Aliquots of 50 μL samples were taken from the reaction solution at 0, 5, 15, 45 min. The reaction solutions were stopped by the addition of 400 μL stop solution.
(§11) 6) The sampling plates were shaked for approx. 5 min.
(§12) 7) Samples were centrifuged at 3200 rcf for 10 min. then transferred 50 μL to a new plate dilute with 200 μL H2O for LC/MS/MS analysis.
(§13) Use equation of first order kinetics to calculate t1/2 and CL: […]
(§14) Where k represents elimination constant, which is calculated from a log linear plot of % Remaining versus time. t1/2 represents the half-life. Cprotein is the concentration of liver microsomes.

[2] = In vitro metabolic stability in human liver microsome; type: in vitro ADME; details: human liver microsomes
Description: as §1, §2, §3, §4, §5, §6, §7, §8, §9, §10, §11, §12, §13, §14

[3] = molecular target: T1, hERG channel (Homo sapiens, UniProt Q12809); test: Patch clamp assay to test the effect of compound on hERG channel; type: cell-based; details: manual patch clamp, HEK 293 cells expressed with hERG, concentration for half maximum effect
T1 construct: expressed in transfected cells; host or cells: HEK-293
Description: 10 mL extracellular solution was used to dilute the stock solution, making the final concentrations of test compound were 0.3 μM, 1 μM, 3 μM, 10 μM and 30 μM.
The solubility of compound was visually observed.
The cell line was derived from HEK-293 cells, and grown in a humidified environment at 37° C. under 5% CO2, using the media formulation below. The cell line should not be allowed to exceed 80% confluence within the culture vessel to prevent contact inhibition causing senescence and should thus be passaged every 3/4 days using a seeding density of 2*10^6 cells per T175 flask. Cell lines were be pre-washed with phosphate buffered saline before harvesting with Trypsin/EDTA and seeded into new flasks.
HEK 293 cells expressed with hERG were plated on cover slips overnight with the cell density less than 50% of confluence. Cells used for electrophysiological study were transferred to a small cell bath (1 mL) mounted on the stage of an inverted microscope (Diaphot, Nikon) and were perfused with external solution containing (in mM) 130 NaCl, 4 KCl, 1.8 CaCl2), 1 MgCl2, 10 glucose and 10 HEPES (pH 7.4 with NaOH), the perfusion rate was 4 mL/min. The internal pipette solution contained (in mM) 130 KCl, 1 MgCl2, 5 ethylene glycol-bis(baminoethyl ether)-N,N,N8,N8-tetraacetic acid, 5 MgATP and 10 HEPES (pH 7.2 with KOH). An HEKA EPC-10 patch-clamp amplifier and PATCHMASTER acquisition program were used to record membrane currents (HEKA Instruments IncD-67466 Lambrecht/Pfalz Germany). All experiments were performed at room temperature (22-23° C.).
The Model P-97 micropipette puller (Sutter Instrument Company, One Digital Drive, Novato, Calif. 94949) was used to pull glass patch pipettes (BF150-86-10) in all experiments.
The experiments were initiated with a 2 min vehicle control period after forming a whole cell configuration with less 5% run-down in 5 min and the tail currents in the report were at least greater than 500 pA. After a 2 min vehicle control period, the perfusion was switched to the reservoir containing the compound at the first concentration. The same procedure was repeated 3-5 times so that each cell was exposed to 4-6 escalating concentrations of compound. The time courses for block and unblock of hERG during compounds exposure and washout were continuously recorded.
The peak tail of hERG was generated by applying 2-sec depolarizing every 12 sec steps from a holding potential of −80 mV, the peak of tail currents were measured at a 5-sec repolarizing pulse at −50 mV.
hERG peak tail currents were directly measured from a 5 sec repolarization pulse at −50 mV. The fraction of control current was plotted as a function of logarithm of compound concentration. To determine the concentration of compound for halfmaximum effect, the concentration-response curve was fitted by Hill equation as shown follow.
where Y is the observed value, Bottom is the lowest observed value (0), Top is the highest observed value (1), and the Hillcoefficient gives the largest absolute value of the slope of the curve.
Data were analyzed by a combination of PATCHMASTER ((HEKA Instruments IncD-67466 Lambrecht/Pfalz Germany) and Origin (OriginLab Corporation, Northampton, Mass.) software programs.
Data were expressed as mean±SEM.

[4] = molecular target: T2, SHP2 (Homo sapiens, UniProt Q06124); test: SHP2 allosteric inhibitor enzyme activity assay (DiFMUP fluorescence); type: biochemical; details: numeric values
T2 sequence (Q06124 1-593): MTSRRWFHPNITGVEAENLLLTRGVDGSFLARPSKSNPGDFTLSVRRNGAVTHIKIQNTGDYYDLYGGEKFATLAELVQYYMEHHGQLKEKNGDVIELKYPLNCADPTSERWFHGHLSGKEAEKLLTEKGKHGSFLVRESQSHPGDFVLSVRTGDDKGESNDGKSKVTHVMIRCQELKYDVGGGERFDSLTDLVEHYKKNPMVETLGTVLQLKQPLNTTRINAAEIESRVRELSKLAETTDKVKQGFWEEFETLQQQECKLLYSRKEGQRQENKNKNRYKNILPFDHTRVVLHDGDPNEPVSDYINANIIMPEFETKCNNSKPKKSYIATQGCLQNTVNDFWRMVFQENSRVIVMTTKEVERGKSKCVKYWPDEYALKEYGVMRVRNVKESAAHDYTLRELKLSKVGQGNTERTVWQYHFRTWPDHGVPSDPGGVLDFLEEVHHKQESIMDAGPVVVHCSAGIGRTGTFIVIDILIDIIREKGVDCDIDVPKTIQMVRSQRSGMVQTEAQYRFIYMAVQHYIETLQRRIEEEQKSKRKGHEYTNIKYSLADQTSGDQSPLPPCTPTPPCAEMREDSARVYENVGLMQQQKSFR
How it was run: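 SHP2 activated by 0.5 μM IRS1_pY1172(dPEG8)pY1222 peptide, 0.2 ng enzyme per well, 1 h at room temperature with compound (1 μM top, 3-fold series), then DiFMUP substrate 1 h. Buffer: 60 mM HEPES, 75 mM NaCl, 75 mM KCl, 0.05% BRIJ-35, 1 mM EDTA, 5 mM DTT. Fluorescence ex 340/em 450 nm; IC50 by variable-slope fit.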

T1 sequence (Q12809 whole entry): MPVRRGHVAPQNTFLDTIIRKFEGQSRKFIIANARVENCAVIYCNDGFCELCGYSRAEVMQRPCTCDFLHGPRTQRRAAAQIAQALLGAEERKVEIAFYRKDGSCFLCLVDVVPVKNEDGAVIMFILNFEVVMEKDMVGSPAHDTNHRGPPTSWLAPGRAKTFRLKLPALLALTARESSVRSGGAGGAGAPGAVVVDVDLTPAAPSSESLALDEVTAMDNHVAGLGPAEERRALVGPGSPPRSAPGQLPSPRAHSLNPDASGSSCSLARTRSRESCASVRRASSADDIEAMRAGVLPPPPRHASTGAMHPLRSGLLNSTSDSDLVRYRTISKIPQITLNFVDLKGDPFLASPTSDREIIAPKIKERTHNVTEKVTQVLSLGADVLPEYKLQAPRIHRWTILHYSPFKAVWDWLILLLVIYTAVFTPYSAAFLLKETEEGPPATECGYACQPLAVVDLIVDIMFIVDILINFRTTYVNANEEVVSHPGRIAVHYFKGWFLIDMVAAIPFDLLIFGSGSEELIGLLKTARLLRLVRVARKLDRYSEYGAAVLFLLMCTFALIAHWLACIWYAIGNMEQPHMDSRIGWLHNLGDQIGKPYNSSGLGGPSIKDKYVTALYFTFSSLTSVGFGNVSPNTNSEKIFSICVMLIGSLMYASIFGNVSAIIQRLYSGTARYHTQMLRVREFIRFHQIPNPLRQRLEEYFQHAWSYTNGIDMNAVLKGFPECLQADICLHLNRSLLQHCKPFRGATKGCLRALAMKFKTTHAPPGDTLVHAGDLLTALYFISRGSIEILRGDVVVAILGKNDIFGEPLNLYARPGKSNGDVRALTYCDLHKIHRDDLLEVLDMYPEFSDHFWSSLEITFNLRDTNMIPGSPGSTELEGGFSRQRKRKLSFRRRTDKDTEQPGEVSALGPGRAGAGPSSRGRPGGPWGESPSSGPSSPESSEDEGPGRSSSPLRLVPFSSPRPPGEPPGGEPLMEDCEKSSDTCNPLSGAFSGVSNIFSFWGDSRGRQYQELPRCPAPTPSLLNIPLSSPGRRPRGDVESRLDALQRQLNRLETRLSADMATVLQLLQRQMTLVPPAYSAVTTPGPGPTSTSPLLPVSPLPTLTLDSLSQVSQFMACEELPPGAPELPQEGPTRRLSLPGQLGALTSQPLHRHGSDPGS

CLint Rat [1] [μL/min/mg proteins] | CLint Human [2] [μL/min/mg proteins] | IC50 [4] [µM] | SMILES | IC50 [3] [µM]
89.9 | 171.8 |  | Cn1c(N2CCC3(CC2)Cc2ccccc2[C@H]3N)nc2[nH]nc(Sc3cccc(Cl)c3Cl)c2c1=O [Comparative compound 1, reference compound] | 0.09
102.0 | 182.7 |  | N[C@@H]1c2ccccc2CC12CCN(c1nc3[nH]nc(C4(Cc5ccccc5)CC4)c3c(=O)[nH]1)CC2 [Example 74] | 1.84
32.5 | 50.0 | 0.0011 | CC(C)(c1ccccc1)c1n[nH]c2nc(N3CCC4(CC3)Cc3ccccc3[C@H]4N)[nH]c(=O)c12 [Example 216, (S)-6-(1-amino-1,3-dihydrospiro[indene-2,4′-piperidin]-1′-yl)-3-(2-phenylpropan-2-yl)-1,5-dihydro-4H-pyrazolo[3,4-d]pyrimidin-4-one] | 
